Laboratory results from US12121510B2 (Cedars-Sinai Medical Center, priority 2016, dated 2024).
Where two headings read alike, the source gives them in different places.

Legend:
[1] = test system: A549/DDP (Cisplatin Resistant); assay: Cell proliferation IC50, Crystal Violet assay; format: cell-based, human; conditions: 72 h
[2] = test system: MIAPaCa II; assay: Cancer cell growth IC50 / sensitization (crystal violet); format: cell-based; conditions: Example 15
Description: (§1) Exemplary Embodiments are generally performed as follows, unless otherwise noted. Simvastatin is purchased from Ark Pharm, Inc. (Arlington Heights, IL). Cisplatin (CIS) is purchased from MedKoo Biosciences, Inc. (Chapel Hill, NC). Dihydroartemisinin is purchased from TCI America (Portland, OR). All other chemicals and reagents are purchased from standard sources such as Sigma-Aldrich and/or VWR and are of highest quality available. Puromycin dihydrochloride was purchased from Alfa Aesar (Tewksbury, MA). Deionized water ([…]) used for making solutions is obtained from Milli-Q Direct Ultrapure Water System from Millipore (Billerica, MA, USA). All intermediates are characterized by 1H NMR and mass analysis and the purity of compounds are analyzed by HPLC. 1H NMR data are collected on Bruker 400 MHz spectrometers using standard parameters; chemical shifts are reported in ppm (δ) in reference to residual non-deuterated solvent. ESI mass spectroscopy analysis is performed using a Thermo Fisher LTQ Orbitrap Elite system. IC50 is the half maximal inhibitory concentration and determined is determined by crystal violet assay unless otherwise noted.
(§2) The crystal violet assay is performed as follows, unless otherwise noted. Cell lines are supplemented with RPMI 1640 medium, 10% fetal bovine serum, 1% PenStrep, and placed in a humidified atmosphere containing 5% CO2 at 37° C. 5,000 cells/well renal cancer cells and 10,000 cells/well lymphoma cells are seeded in 96 well plates in 100 microliter medium/per well for 24 h. […] Renal cancer cells are fixed with 3.7% paraformaldehyde for 15 minutes and are stained with Crystal violet solution (0.5% in 25% methanol) for 30 minutes. After rinsing with water cell layers are dried and decolorized with Sorenson citrate with shaking for 20 minutes. Light absorption of the extracted supernatant is read at 595 nm. Lymphoma cell growth was evaluated using MTT and cells are incubated for 4 hours. 100 microliters of isopropanol is added, and the extracted supernatant fraction is read at absorption maximum of 595 nm. […]

[3] = test system: ACHN; assay: Renal cancer cell growth IC50 (crystal violet); format: cell-based, human
Description: as §1
(§3) The crystal violet assay is performed as follows, unless otherwise noted. Cell lines are supplemented with RPMI 1640 medium, 10% fetal bovine serum, 1% PenStrep, and placed in a humidified atmosphere containing 5% CO2 at 37° C. 5,000 cells/well renal cancer cells and 10,000 cells/well lymphoma cells are seeded in 96 well plates in 100 microliter medium/per well for 24 h. […] Renal cancer cells are fixed with 3.7% paraformaldehyde for 15 minutes and are stained with Crystal violet solution (0.5% in 25% methanol) for 30 minutes. After rinsing with water cell layers are dried and decolorized with Sorenson citrate with shaking for 20 minutes. Light absorption of the extracted supernatant is read at 595 nm. Lymphoma cell growth was evaluated using MTT and cells are incubated for 4 hours. 100 microliters of isopropanol is added, and the extracted supernatant fraction is read at absorption maximum of 595 nm.
(§4) Standard cell culture conditions typically are RPMI 1640 medium, 10% fetal bovine serum, 1% PenStrep, and are performed in a humidified atmosphere containing 5% CO2 at 37° C. Generally, 5,000 cells/well-10,000 cells/well are seeded in 96 well plates in 100 microliter medium/per well for 24 h, or as described in Example 16, unless otherwise noted. Certain cells require specialized media, growth factors, antibiotics, or culture condition adjustments, as will be apparent to a person of ordinary skill in the art.
(§5) Cell lines are cultured as follows. […] 5,000 cells/well renal cancer cells and 10,000 cells/well lymphoma cells are seeded in 96 well plates in 100 microliter medium/per well for 24 h. […] Renal cancer cells are fixed with 3.7% paraformaldehyde for 15 minutes and are stained with Crystal violet solution (0.5% in 25% methanol) for 30 minutes. After rinsing with water cell layers are dried and decolorized with Sorenson citrate with shaking for 20 minutes. Light absorption of the extracted supernatant is read at 595 nm. Lymphoma cell growth is evaluated using MTT and cells are incubated for 4 hours. 100 microliters of isopropanol is added, and the extracted supernatant fraction is read at absorption maximum of 595 nm.

[4] = test system: o-786; assay: Renal cancer cell growth IC50 (crystal violet); format: cell-based, human
Description: as §1, §3, §4, §5

[5] = test system: SKRC; assay: Renal cancer cell growth IC50 (crystal violet); format: cell-based, human
Description: as §1, §3, §4, §5

[6] = test system: Caki-1; assay: Renal cancer cell growth IC50 (crystal violet); format: cell-based, human; conditions: Caki-1
Description: as §1, §3, §4, §5

[7] = test system: Ramos, a B-cell lymphoma, cultured as 3-D spheroids; assay: Cell viability IC50 in 3-D spheroids; format: cell-based, human; conditions: Ramos 3-D spheroids; 72 h; single agent
Description: as §1
Cancer cells were Ramos, a B-cell lymphoma, cultured as 3-D spheroids, cultured according to their standard culturing conditions.

[8] = test system: normal mouse kidney and liver; assay: Immunohistochemical staining of normal kidney and liver; format: in vivo; conditions: mice harbored with human Burkitt's lymphoma
Description: These normal kidney and liver tissues were obtained from mice harbored with human Burkitt's lymphoma.

[9] = test system: ARCaP-E; assay: Cancer cell growth IC50 (crystal violet); format: cell-based; conditions: Example 15
Description: as §1, §3, §4

[10] = test system: C4-2; assay: Cancer cell growth IC50 (crystal violet); format: cell-based; conditions: Example 15; C4-2
Description: as §1, §3, §4

[11] = test system: CAOV-3; assay: Cancer cell growth IC50 (crystal violet); format: cell-based; conditions: Example 15
Description: as §1, §3, §4

[12] = test system: MCF-7; assay: Cancer cell growth IC50 (crystal violet); format: cell-based; conditions: Example 15
Description: as §1, §3, §4

[13] = test system: FUOV-1; assay: Cancer cell growth IC50 (crystal violet); format: cell-based; conditions: Example 15
Description: as §1, §3, §4

[14] = test system: H358; assay: Cancer cell growth IC50 (crystal violet); format: cell-based; conditions: Example 15
Description: as §1, §3, §4

[15] = test system: HepG2; assay: Cancer cell growth IC50 (crystal violet); format: cell-based; conditions: Example 15
Description: as §1, §3, §4

[16] = test system: ARCaP-M; assay: Cancer cell growth IC50 (crystal violet); format: cell-based; conditions: Example 15
Description: as §1, §3, §4

[17] = test system: PC3; assay: Cancer cell growth IC50 (crystal violet); format: cell-based; conditions: Example 15
Description: as §1, §3, §4

[18] = test system: 22Rv1; assay: Cancer cell growth IC50 (crystal violet); format: cell-based, human; conditions: Example 15
Description: as §1, §2

[19] = test system: human lymphoma cell lines (Daudi, Raji, Namalwa, Ramos and CA-46); assay: Growth IC50 in lymphoma cell line panel; format: cell-based; conditions: all lymphoma cell lines; 72 hours; read-out: IC50 across lymphoma cell lines
Experimental: as §3

[20] = 72 hours, read-out: Half maximal inhibitory concentration (IC50)

## N.N.[Cl][Pt][Cl] [CIS, cis-diamminedichloridoplatinum (II)]
[1]; A549/DDP (Cisplatin Resistant), single agent, mean ± SEM, read-out: IC50
  IC50: 90 ± 1 µM
[1]; read-out: IC50 of CIS, Mean, A549/DDP, CIS alone
  IC50: 87.6 µM
[2]
  IC50: > 64 µM
[3]; [20]
  IC50: > 64 µM
[3]; Example 15, read-out: IC50
  IC50: > 64 µM
[4]; Example 15, O-786, read-out: IC50
  IC50: > 64 µM
[4]; o-786, 72 hours, read-out: Half maximal inhibitory concentration (IC50)
  IC50: > 64 µM
[5]; [20]
  IC50: > 64 µM
[5]; Example 15, read-out: IC50
  IC50: > 64 µM
[6]; [20]
  IC50: > 64 µM
[6]; Example 15, read-out: IC50
  IC50: > 64 µM
[7]
  IC50: 81.5 µM
[8]
  Apoptosis markers (cleaved caspas-3 and M30) / damage in normal kidney and liver: elevated
[9]
  IC50: > 64 µM
[10]
  IC50: > 64 µM
[11]
  IC50: 13.4 µM
[12]
  IC50: 39.5 µM
[13]
  IC50: 27.5 µM
[14]
  IC50: > 64 µM
[15]
  IC50: > 64 µM
[16]
  IC50: > 64 µM
[17]
  IC50: 48.7 µM
[18]
  IC50: > 64 µM
[19]
  IC50: > 64 µM
